In one test the test system is bovine tubulin. As to the kind of experiment: In vitro tubulin polymerization assay (turbidity at 340 nm). It counts as biochemical. The conditions noted are these: 10 μM compound, 30 minute data point, vs 1% DMSO control. In outline:
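Bovine tubulin (97%, <3% MAPs) at 3 mg/ml final in G-PEM pH 7 with 1 mM GTP and 5% glycerol, added cold to compound wells at 37° C (1% DMSO final). A340 read each minute for 30 min; percent inhibition from 30-min point versus DMSO control.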

In test [1] the test system is A431 human cancer cell line. As to the kind of experiment: Sulphorhodamine B (SRB) growth inhibition assay. It counts as cell-based. The settings on record: A-431, A431 cells, 48 hours, read-out: SRB Assay: μM required to inhibit tumor cell growth by 50% (GI50). As for the experimental part:
The in vitro growth inhibition activity of the compounds was determined by the Sulphorhodamine B assay. (Skehan P, Storeng R, Scudiero D, Monks A, McMahon J, Vistica D, Warren J T, Bokesch H, Kenney S, Boyd M R. New colorimetric cytotoxicity assay for anticancer-drug screening. J Natl Cancer Inst 82, 1107-1112, 1990). Sulphorhodamine B binds to basic amino acids and stains proteins which can be eluted and detected spectrophotometically by measuring absorbance at 515 nm. The absorbance was indicative of the total protein content of the cells fixed to the walls of the plate well at a given time by trichloroacetic acid, which is a measure of the viable cell concentration.
The in vitro growth inhibition activity of the compounds was determined using a Sulphorhodamine B assay. See, Skehan et al., “New colorimetric cytotoxicity assay for anticancer-drug screening,” J. Natl. Cancer Inst., 82, 1107-1112, (1990). Sulphorhodamine B binds to basic amino acids and stains proteins which can be eluted and detected spectrophotometically by measuring absorbance at 515 nm. The absorbance indicates the total protein content of the cells fixed to the walls of the plate well at a given time by trichloroacetic acid, which is a measure of the viable cell concentration.
The reagents used in the assay can be purchased from commercial sources and include Sulphorhodamine B 0.4% (w/v) in 1% (v/v) acetic acid (Sigma Cat#S-1402); trichloroacetic acid 50% (w/v) in deionized water, working solution (Sigma Cat#T-9159); and trizma base (Tris) 10 mM working solution, pH 7.5 (Sigma Cat#T-7693).
The procedure was cared out over four days. In Day 1, the cells were seeded in a seed 10,000 cells/100 μL/well in 96 well plate in duplicates as per template. Also, seed cells in extra plate for time zero (To plate). Thereafter, the cells were incubated for 24 hours at 37° C. with 5% CO2.
On Day 2, the test compound was added to the cells at five log doses from 100 μM to 0.01 μM (Volume of addition=100 μL in 1% DMSO for all compound concentrations, Control treatment=1% DMSO).
The compounds were prepared by weighing the test compounds in 1.5 ml eppendorf tubes and calculating the volume of DMSO to be added to bring the concentration of the compound to 20 mM. Thereafter, a 20 mM stock was made and diluted by four 10 fold dilutions in DMSO to get 2, 0.2, 0.02 and 0.002 mM solutions. Each solution was diluted 100 times (10 μL to 1 ml medium) and a further addition to the culture plate (100 μL) to half the concentration of cells was made. The final well concentration for 20 mM stock was 100 μM and similarly with other test concentrations.
The cells were incubated for 48 hours at 37° C. with 5% CO2 and terminated by adding 50 μL of 50% cold trichloroacetic acid (10% to final). Thereafter, the cells were incubated for one hour at 4° C.
On Day 4, the cells were fixed to the wells by the addition of 50 μL of 50% cold trichloroacetic acid (10% to final) and incubated for 1 hour at 4° C. The supernatant was discarded by force inverting the plate into the sink followed by washing thrice with tap water and the plates are then air-dried. 100 μL SRB (0.4% in 1% acetic acid) was added to each well and the plates were incubated for 10 minutes at room temperature. Unbound dye was removed by force inverting the plate into the sink and washing thrice with 1% acetic acid. Thereafter, the plates were allowed to air dry.
Bound SRB was solubilized with 100 μL of 10 mM Tris, pH 7.4 and the absorbance was measured at a wavelength of 515 nm.
A sample set of calculations was performed as follows. The percentage growth was calculated by T-To/C-To X 100 if T>To and T-To/To X 100 if T<To, wherein T is Test OD (with compound), C is Control OD, To is Time Zero OD (cell growth at the time of drug addition). […]

A word on the GI50: it is the concentration at which growth is held to half of that of the control. In the case of `COc1ccc(Nc2nnc(-c3cccnc3Nc3ccc4c(c3)OCO4)[nH]2)cc1` [Compound 8, Benzo[1,3]dioxol-5-yl-{3-[5-(4-methoxy-phenylamino)-4H-[1,2,4]triazol-3-yl]-pyridin-2-yl}-amine], in the test with bovine tubulin, the “Tubulin Assay: percent inhibition at 10 μM based on 30 minute data” value (“Tubulin Assay: percent inhibition” for short) was determined as 100%. Moreover, the GI50 in test [1] is 0.3 µM.

As to `COc1ccc(OC)c(Nc2nnc(-c3cccnc3Nc3ccc4c(c3)OCO4)[nH]2)c1` [Compound 9, Benzo[1,3]dioxol-5-yl-{3-[5-(2,5-dimethoxy-phenylamino)-4H-[1,2,4]triazol-3-yl]-pyridin-2-yl}-amine], in the test on bovine tubulin, the “Tubulin Assay: percent inhibition” value is given as 47%. Further, the GI50 in test [1] was determined as 25 µM.

For `COc1ccc(Nc2nnc(-c3cccnc3Nc3ccc4c(c3)OCO4)[nH]2)c(OC)c1` [Compound 10, Benzo[1,3]dioxol-5-yl-{3-[5-(2,4-dimethoxy-phenylamino)-4H-[1,2,4]triazol-3-yl]-pyridin-2-yl}-amine], the “Tubulin Assay: percent inhibition” value with bovine tubulin is recorded as 73%. Further, in test [1], the GI50 worked out at 20 µM.

For `COc1cc(Nc2ncccc2-c2nnc(Nc3ccc(OC)cc3OC)[nH]2)cc(OC)c1` [Compound 12, (3,5-Dimethoxy-phenyl)-{3-[5-(2,4-dimethoxy-phenylamino)-4H-[1,2,4]triazol-3-yl]-pyridin-2-yl}-amine], in the test on bovine tubulin, the “Tubulin Assay: percent inhibition” value stood at 46%. Moreover, the 50% growth inhibitory concentration (GI50) in test [1] is 20 µM.

As to `COc1cc(Nc2nnc(-c3cccnc3NCc3ccc4c(c3)OCO4)[nH]2)cc(OC)c1` [Compound 16, Benzo[1,3]dioxol-5-ylmethyl-{3-[5-(3,5-dimethoxy-phenylamino)-4H-[1,2,4]triazol-3-yl]-pyridin-2-yl}-amine], in the test with bovine tubulin, the “Tubulin Assay: percent inhibition” value came to 41%. Besides, the GI50 in test [1] came out at 2.5 µM.

Regarding `c1cnc(NCc2ccc3c(c2)OCO3)c(-c2nnc(Nc3ccc4c(c3)OCO4)[nH]2)c1` [Compound 33, {3-[5-(Benzo[1,3]dioxol-5-ylamino)-4H-[1,2,4]triazol-3-yl]-pyridin-2-yl}-benzo[1,3]dioxol-5-ylmethyl-amine], the “Tubulin Assay: percent inhibition” value with bovine tubulin is on record as 60%. In test [1], the GI50 turned out to be 10 µM.

Regarding `COc1cc(Nc2ncccc2-c2nnc(Nc3cc(Cl)cc(Cl)c3)[nH]2)cc(OC)c1` [Compound 53, {3-[5-(3,5-Dichloro-phenylamino)-4H-[1,2,4]triazol-3-yl]-pyridin-2-yl}-(3,5-dimethoxy-phenyl)-amine], the “Tubulin Assay: percent inhibition” value in the test with bovine tubulin was 44%. Moreover, in test [1], the GI50 came out at 6 µM.

On to `CS(=O)(=O)c1ccc(-c2nnc(-c3cccnc3NCCCN3CCCC3=O)[nH]2)cc1` [Compound 75, 1-(3-{3-[5-(4-Methanesulfonyl-phenyl)-4H-[1,2,4]triazol-3-yl]-pyridin-2-ylamino}-propyl)-pyrrolidin-2-one], for which, in the test with bovine tubulin, the “Tubulin Assay: percent inhibition” value is recorded as 60%. Also, in test [1], the GI50 came to 80 µM.

Regarding `COc1cc(CNc2ncccc2-c2nnc(-c3cccc(OC)c3)[nH]2)cc(OC)c1` [Compound 79, (3,5-Dimethoxy-benzyl)-{3-[5-(3-methoxy-phenyl)-4H-[1,2,4]triazol-3-yl]-pyridin-2-yl}-amine], the “Tubulin Assay: percent inhibition” value in the test on bovine tubulin worked out at 32%. The GI50 in test [1] is 20 µM.

With `COc1cccc(-c2nnc(-c3cccnc3NCc3ccc4c(c3)OCO4)[nH]2)c1` [Compound 80, Benzo[1,3]dioxol-5-ylmethyl-{3-[5-(3-methoxy-phenyl)-4H-[1,2,4]triazol-3-yl]-pyridin-2-yl}-amine], the “Tubulin Assay: percent inhibition” value in the test with bovine tubulin is on record as 46%. Also, the GI50 in test [1] turned out to be 8 µM.

Consider `Fc1cccc(-c2nnc(-c3cccnc3NCc3ccc4c(c3)OCO4)[nH]2)c1` [Compound 82, Benzo[1,3]dioxol-5-ylmethyl-{3-[5-(3-fluoro-phenyl)-4H-[1,2,4]triazol-3-yl]-pyridin-2-yl}-amine], for which the “Tubulin Assay: percent inhibition” value in the test on bovine tubulin was 30%. Moreover, the GI50 in test [1] was found to be 20 µM.

In the case of `FC(F)(F)c1ccc(-c2nnc(-c3cccnc3NCc3ccc4c(c3)OCO4)[nH]2)cc1` [Compound 84, Benzo[1,3]dioxol-5-ylmethyl-{3-[5-(4-trifluoromethyl-phenyl)-4H-[1,2,4]triazol-3-yl]-pyridin-2-yl}-amine], the “Tubulin Assay: percent inhibition” value in the test on bovine tubulin was 27%. Besides, the GI50 in test [1] worked out at 2.5 µM.

With `FC(F)(F)c1ccc(-c2nnc(-c3cccnc3NCc3cccnc3)[nH]2)cc1` [Compound 86, Pyridin-3-ylmethyl-{3-[5-(4-trifluoromethyl-phenyl)-4H-[1,2,4]triazol-3-yl]-pyridin-2-yl}-amine], the “Tubulin Assay: percent inhibition” value with bovine tubulin is 31%. The 50% growth inhibitory concentration (GI50) in test [1] stood at 2.2 µM.

For `COc1cc(OC)cc(-c2nnc(-c3cccnc3NCc3cccnc3)[nH]2)c1` [Compound 87, {3-[5-(3,5-Dimethoxy-phenyl)-4H-[1,2,4]triazol-3-yl]-pyridin-2-yl}-pyridin-3-ylmethyl-amine], the “Tubulin Assay: percent inhibition” value in the test with bovine tubulin is 85%. Also, the GI50 in test [1] stood at 30 µM.

As for `CS(=O)(=O)c1ccc(-c2nnc(-c3cccnc3NCc3cccnc3)[nH]2)cc1` [Compound 89, {3-[5-(4-Methanesulfonyl-phenyl)-4H-[1,2,4]triazol-3-yl]-pyridin-2-yl}-pyridin-3-ylmethyl-amine], the “Tubulin Assay: percent inhibition” value in the test on bovine tubulin was 85%. For the same molecule, the concentration for 50% growth inhibition (GI50) in test [1] stood at 5 µM.

For the molecule `Fc1ccc(OCc2nnc(-c3cccnc3NCc3ccc4c(c3)OCO4)[nH]2)cc1` [Compound 109, Benzo[1,3]dioxol-5-ylmethyl-{3-[5-(4-fluoro-phenoxymethyl)-4H-[1,2,4]triazol-3-yl]-pyridin-2-yl}-amine], the “Tubulin Assay: percent inhibition” value with bovine tubulin is on record as 41%. Besides, the GI50 in test [1] amounted to 30 µM.

As to `c1ccc(-c2nnc(Nc3ccc4c(c3)OCO4)[nH]2)c(NCc2ccncc2)c1` [Compound 111, Benzo[1,3]dioxol-5-yl-(5-{2-[(pyridin-4-ylmethyl)-amino]-phenyl}-4H-[1,2,4]triazol-3-yl)-amine], the “Tubulin Assay: percent inhibition” value in the test on bovine tubulin is reported as 70%. In test [1], the GI50 stood at 10 µM.

Consider `FC(F)(F)c1cccc(-c2nnc(-c3ccccc3NCc3cccnc3)[nH]2)c1` [Compound 130, Pyridin-3-ylmethyl-{2-[5-(3-trifluoromethyl-phenyl)-4H-[1,2,4]triazol-3-yl]-phenyl}-amine], for which the “Tubulin Assay: percent inhibition” value in the test with bovine tubulin is reported as 47%. Moreover, the GI50 in test [1] was determined as 2.75 µM.

Take `COc1cc(OC)cc(-c2nnc(-c3ccccc3NCc3ccncc3)[nH]2)c1` [Compound 132, {2-[5-(3,5-Dimethoxy-phenyl)-4H-[1,2,4]triazol-3-yl]-phenyl}-pyridin-4-ylmethyl-amine]: in the test on bovine tubulin, the “Tubulin Assay: percent inhibition” value turned out to be 46%. Further, in test [1], the 50% growth inhibitory concentration (GI50) turned out to be 100 µM.

In the case of `COc1cc(Nc2ncccc2-c2nnc(Nc3ccc(OC)c(OC)c3)o2)cc(OC)c1` [Compound 178, (3,5-Dimethoxy-phenyl)-{3-[5-(3,4-dimethoxy-phenylamino)-[1,3,4]oxadiazol-2-yl]-pyridin-2-yl}-amine], the “Tubulin Assay: percent inhibition” value in the test with bovine tubulin turned out to be 40%. The GI50 in test [1] amounted to 0.3 µM.
